Results as given in article PMC10385824, “Antiproliferative and Tubulin-Destabilising Effects of 3-(Prop-1-en-2-yl)azetidin-2-Ones and Related Compounds in MCF-7 and MDA-MB-231 Breast Cancer Cells” (Pharmaceuticals, 2023).
pIC50: −log10 of the molar value. Like-named read-outs stand apart in the source and are kept apart here.

How the values were obtained:
SF295 = assay: NCI-60 SRB screen, CNS cancer; format: cell-based, human; settings: Homo sapiens
[1] = test system: purified bovine brain tubulin; assay: Tubulin polymerization assay (light scattering, BK006 kit); format: biochemical; settings: compound at 10 μM; for Fold Reduction in Vmax: relative to vehicle
How it was run: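 Compounds tested at 10 µM against vehicle (1% DMSO or EtOH) with bovine brain tubulin, 3 mg/mL, in pH 6.9 PIPES buffer containing 1 mM GTP and 10% glycerol, 37 °C. Light scattering at 340 nm tracked microtubule formation; average of two independent runs reported.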

EKVX = assay: NCI-60 SRB screen, non-small cell lung cancer; format: cell-based, human; settings: Homo sapiens, 48 h
ACHN = assay: NCI-60 SRB screen, renal cancer; format: cell-based, human; settings: Homo sapiens, 48 h
RPMI-8226 = assay: NCI-60 SRB screen, leukemia; format: cell-based, human; settings: Homo sapiens
SN12C = assay: NCI-60 SRB screen, renal cancer; format: cell-based, human; settings: Homo sapiens, 48 h
OVCAR-8 = assay: NCI-60 SRB screen, ovarian cancer; format: cell-based, human; settings: Homo sapiens
SK-OV-3 = assay: NCI-60 SRB screen, ovarian cancer; format: cell-based, human; settings: Homo sapiens
HS 578T = assay: NCI-60 SRB screen, breast cancer; format: cell-based; settings: Homo sapiens, 48 h
SF539 = assay: NCI-60 SRB screen, CNS cancer; format: cell-based, human; settings: Homo sapiens
K-562 = assay: NCI-60 SRB screen, leukemia; format: cell-based, human; settings: Homo sapiens, K562, 48 h
SK-MEL-2 = assay: NCI-60 SRB screen, melanoma; format: cell-based, human; settings: Homo sapiens
SK-MEL-28 = assay: NCI-60 SRB screen, melanoma; format: cell-based, human; settings: Homo sapiens
OVCAR-4 = assay: NCI-60 SRB screen, ovarian cancer; format: cell-based, human; settings: Homo sapiens
UO-31 = assay: NCI-60 SRB screen, renal cancer; format: cell-based, human; settings: Homo sapiens
NCI-H460 = assay: NCI-60 SRB screen, non-small cell lung cancer; format: cell-based, human; settings: Homo sapiens
SNB-75 = assay: NCI-60 SRB screen, CNS cancer; format: cell-based, human; settings: Homo sapiens
HOP-62 = assay: NCI-60 SRB screen, non-small cell lung cancer; format: cell-based, human; settings: Homo sapiens
[2] = test system: NCI 60 human cancer cell line panel; assay: NCI 60 cell line screen (SRB), panel values; settings: for CC50: read-out: Mean LC50; for IC (TGI (total growth inhibition)): read-out: Mean TGI
DU-145 = assay: NCI-60 SRB screen, prostate cancer; format: cell-based, human; settings: Homo sapiens
MDA-MB-468 = assay: NCI-60 SRB screen, breast cancer; format: cell-based, human; settings: Homo sapiens
HCT-116 = assay: NCI-60 SRB screen, colon cancer; format: cell-based, human; settings: Homo sapiens
HT29 = assay: NCI-60 SRB screen, colon cancer; format: cell-based, human; settings: Homo sapiens
BT-549 = assay: NCI-60 SRB screen, breast cancer; format: cell-based, human; settings: Homo sapiens
SR = assay: NCI-60 SRB screen, leukemia; format: cell-based, human; settings: Homo sapiens, 48 h
NCI-H552 = assay: NCI-60 SRB screen, non-small cell lung cancer; format: cell-based, human; settings: Homo sapiens, 48 h
HL-60(TB) = assay: NCI-60 SRB screen, leukemia; format: cell-based, human; settings: Homo sapiens
RXF 393 = assay: NCI-60 SRB screen, renal cancer; format: cell-based, human; settings: Homo sapiens
[3] = five dose 0.01–100 µM, read-out: GI50
[4] = Homo sapiens, 60 cell, read-out: Mean GI50, mean over all NCI 60 cell lines
[5] = read-out: Mean GI50, mean over all NCI 60 cell lines
[6] = HL-60(TB), five dose 0.01–100 µM, 48 h

Compound: C=CCC1C(=O)N(c2cc(OC)c(OC)c(OC)c2)C1c1ccc(OC)c(O)c1 (stereo not drawn) [10p, 4-(3-Hydroxy-4-methoxyphenyl)-1-(3,4,5-trimethoxyphenyl)-3-allylazetidin-2-one]
- GI50 (SF295; SF-295, SF295, five dose 0.01–100 µM, 48 h, read-out: GI50): 29.1 nM
- Fold Reduction in Vmax [1]: 4.5
- GI50 (EKVX; [3]): 76.4 nM
- GI50 (ACHN; [3]): 53.2 nM
- GI50 (RPMI-8226; RPMI-8226, five dose 0.01–100 µM, 48 h, read-out: GI50): 40.6 nM
- GI50 (SN12C; [3]): 29.8 nM
- GI50 (OVCAR-8; OVCAR-8, five dose 0.01–100 µM, 48 h, read-out: GI50): 34 nM
- GI50 (SK-OV-3; SK-OV-3, five dose 0.01–100 µM, 48 h, read-out: GI50): 36.6 nM
- GI50 (HS 578T; HS 578T, five dose 0.01–100 µM, read-out: GI50): 51.7 nM
- GI50 (SF539; SF-539, SF539, five dose 0.01–100 µM, 48 h, read-out: GI50): 38.2 nM
- GI50 (K-562; read-out: GI50): 43.1 nM
- GI50 (SK-MEL-2; SK-MEL-2, five dose 0.01–100 µM, 48 h, read-out: GI50): 301 nM
- GI50 (SK-MEL-28; SK-MEL-28, five dose 0.01–100 µM, 48 h, read-out: GI50): 76200 nM
- GI50 (OVCAR-4; OVCAR-4, five dose 0.01–100 µM, 48 h, read-out: GI50): 39.7 nM
- GI50 (UO-31; UO-31, five dose 0.01–100 µM, 48 h, read-out: GI50): 85.8 nM
- GI50 (NCI-H460; NCI-H460, five dose 0.01–100 µM, 48 h, read-out: GI50): 32 nM
- GI50 (SNB-75; SNB-75, five dose 0.01–100 µM, 48 h, read-out: GI50): 44.8 nM
- GI50 (HOP-62; HOP-62, five dose 0.01–100 µM, 48 h, read-out: GI50): 61 nM
- GI50 [2, 4]: < 91.2 nM
- CC50 ([2]; Homo sapiens, 60 cell): 93300 nM
- IC (TGI (total growth inhibition)) ([2]; Homo sapiens, 60 cell): 35500 nM
- GI50 [2, 5]: 61.7 nM
- GI50 (DU-145; DU-145, five dose 0.01–100 µM, 48 h, read-out: GI50): 26.6 nM
- GI50 (MDA-MB-468; MDA-MB-468, five dose 0.01–100 µM, 48 h, read-out: GI50): 25 nM
- GI50 (HCT-116; HCT-116, five dose 0.01–100 µM, 48 h, read-out: GI50): 24.9 nM
- GI50 (HT29; HT-29, HT29, five dose 0.01–100 µM, 48 h, read-out: GI50): 360 nM
- GI50 (BT-549; BT-549, five dose 0.01–100 µM, 48 h, read-out: GI50): 18.8 nM
- GI50 (SR; [3]): 31.4 nM
- GI50 (NCI-H552; NCI-H552, five dose 0.01–100 µM, read-out: GI50): 15.1 nM
- GI50 (HL-60(TB); [6]): 32.3 nM
- GI50 (HL-60(TB); HL-60, NCI screen): < 34 nM
- GI50 (RXF 393; RXF 393, five dose 0.01–100 µM, 48 h, read-out: GI50): 41 nM

Compound: C=CC=CC1C(=O)N(c2cc(OC)c(OC)c(OC)c2)C1c1ccc(OC)cc1 (stereo not drawn) [11h, 3-(Buta-1,3-dienyl)-4-(4-methoxyphenyl)-1-(3,4,5-trimethoxyphenyl)azetidin-2-one]
- GI50 (SF295; SF-295, 48 h): 30.9 nM
- Vmax ([1]; 37 °C, 340 nm): 0.0035 mOD/min
- Fold Reduction in Vmax [1]: 2.9
- GI50 (EKVX): 83.4 nM
- GI50 (ACHN): 60.7 nM
- GI50 (RPMI-8226; RPMI-8226, 48 h): 38.4 nM
- GI50 (SN12C): 50.8 nM
- GI50 (OVCAR-8; OVCAR-8, 48 h): 37.4 nM
- GI50 (SK-OV-3; SK-OV-3, 48 h): 37.3 nM
- GI50 (HS 578T; Hs-578T): 24.7 nM
- GI50 (SF539; SF-539, 48 h): 33.2 nM
- GI50 (K-562): 41 nM
- GI50 (SK-MEL-2; SK-MEL-2, 48 h): 3250 nM
- GI50 (SK-MEL-28; SK-MEL-28, 48 h): 16000 nM
- GI50 (OVCAR-4; OVCAR-4, 48 h): 37.3 nM
- GI50 (UO-31; UO-31, 48 h): 216 nM
- GI50 (NCI-H460; NCI-H460, 48 h): 33.2 nM
- GI50 (SNB-75; SNB-75, 48 h): 30.7 nM
- GI50 (HOP-62; HOP-62, 48 h): 55.8 nM
- GI50 [2, 4]: < 91.2 nM
- CC50 ([2]; Homo sapiens, 60 cell): 77600 nM
- IC (TGI (total growth inhibition)) ([2]; Homo sapiens, 60 cell): 8910 nM
- GI50 [2, 5]: 58.9 nM
- GI50 (DU-145; DU-145, 48 h): 27 nM
- GI50 (MDA-MB-468; MDA-MB-468, 48 h): 23.3 nM
- GI50 (HCT-116; HCT-116, 48 h): 26.4 nM
- pIC50 (HT29; HT-29): 7.48
- GI50 (HT29; HT-29, 48 h): 33.2 nM
- GI50 (BT-549; BT-549, 48 h): 20.3 nM
- GI50 (SR): 35.6 nM
- GI50 (NCI-H552): 15.1 nM
- GI50 (HL-60(TB); [6]): 33.8 nM
- GI50 (HL-60(TB); HL-60, NCI screen): < 34 nM
- GI50 (RXF 393; RXF 393, 48 h): 30.1 nM
